Results as given in ChEMBL document CHEMBL1201862, “PubChem BioAssay data set” (2004).
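Cultured in 96-well plates, cells were exposed to test compound for 48 hours across five concentrations. Here, GI50 denotes the concentration required for 50% inhibition of growth.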 Calls of active or inactive are those of the source. Rule as the data show it: active = GI50 up to about 1.1 µM and inactive = higher.

Legend:
Assay in all cases: NCI tumour cell line growth inhibition, 48 h
[1] = test system: K562
[2] = test system: MOLT-4
[3] = test system: MDA-MB-435
[4] = test system: UACC-257
[5] = test system: IGROV-1
[6] = test system: ACHN
[7] = test system: SF-268
[8] = test system: HL-60
[9] = test system: MCF7
[10] = test system: Malme-3M
[11] = test system: HT-29
[12] = test system: SK-OV-3
[13] = test system: SK-MEL-5
[14] = test system: NCI-H460
[15] = test system: KM12
[16] = test system: SR
[17] = test system: SK-MEL-2
[18] = test system: RPMI-8226
[19] = test system: SF-539
[20] = test system: HCC 2998

SMILES | GI50 [1] | GI50 [2] | GI50 [3] | GI50 [4] | GI50 [5] | GI50 [6] | GI50 [7] | GI50 [8] | GI50 [9] | GI50 [10] | GI50 [11] | GI50 [12] | GI50 [13] | GI50 [14] | GI50 [15] | GI50 [16] | GI50 [17] | GI50 [18] | GI50 [19] | GI50 [20]
CC1=CC[C@@]2(CO)[C@@H]([C@@H]1C)[C@H]1CC[C@@H]3[C@@]4(C)CC[C@H](O)C(C)(C)[C@@H]4CC[C@@]3(C)[C@]1(C)C[C@@H]2O | 45.7 µM (inactive) | 21.3 µM (inactive) | 40.2 µM (inactive) | 27.2 µM (inactive) | 29.3 µM (inactive) | 20.7 µM (inactive) | 21 µM (inactive) | 11.7 µM (inactive) | 8.43 µM (inactive) | 20.3 µM (inactive) | 29.8 µM (inactive) | 14.4 µM (inactive) | 13 µM (inactive) | 16.3 µM (inactive) | 38.5 µM (inactive) | – | – | – | – | –
CC1OC2OC3C(OCC(O)C3O)OC(=O)[C@]34CCC(C)(C)CC3C3=CCC5[C@@]6(C)C[C@H](O)[C@H](OC7OC(CO)C(O)C(O)C7OC7OC(COC(=O)CC(C)(O)CC(=O)OC1C(OC1OC(CO)C(O)C(O)C1O)C2O)C(O)C(O)C7O)[C@@](C)(CO)C6CC[C@@]5(C)[C@]3(C)CC4 (some centres undefined) | – | 2.98 µM (inactive) | 1.91 µM (inactive) | 1.64 µM (inactive) | 3.9 µM (inactive) | 2.72 µM (inactive) | 2.94 µM (inactive) | 1.44 µM (inactive) | – | 2.41 µM (inactive) | 1.52 µM (inactive) | 12.2 µM (inactive) | 0.137 µM (active) | 9.55 µM (inactive) | 2.37 µM (inactive) | 3.66 µM (inactive) | 1.58 µM (inactive) | 2.51 µM (inactive) | 5.46 µM (inactive) | 1.42 µM (inactive)
Cc1ccc2c(=O)c(C(=O)N(CCO)CCO)c[nH]c2n1 | > 100 µM (inactive) | > 100 µM (inactive) | > 100 µM (inactive) | > 100 µM (inactive) | > 100 µM (inactive) | > 100 µM (inactive) | > 100 µM (inactive) | > 100 µM (inactive) | > 100 µM (inactive) | > 100 µM (inactive) | > 100 µM (inactive) | – | > 100 µM (inactive) | > 100 µM (inactive) | > 100 µM (inactive) | – | > 100 µM (inactive) | > 100 µM (inactive) | – | –
CC1(C)OCC(CO)(Nc2nc(N3CC3)nc(N3CC3)n2)CO1 | 12.7 µM (inactive) | 0.597 µM (active) | 19.5 µM (inactive) | 14.7 µM (inactive) | 20.6 µM (inactive) | 1.42 µM (inactive) | 4.07 µM (inactive) | 0.69 µM (active) | – | 16.9 µM (inactive) | 13.9 µM (inactive) | 5.78 µM (inactive) | 8.18 µM (inactive) | 0.38 µM (active) | 16.3 µM (inactive) | 0.483 µM (active) | 19 µM (inactive) | 16.1 µM (inactive) | 4.18 µM (inactive) | 16.9 µM (inactive)
c1cc2c(cc1C1=NCCN1)c1cc(C3=NCCN3)ccc1n2CC1CCCCC1 | 14.8 µM (inactive) | 5.05 µM (inactive) | 18 µM (inactive) | 22.7 µM (inactive) | 18.2 µM (inactive) | > 100 µM (inactive) | 4.31 µM (inactive) | 14.3 µM (inactive) | – | 8.11 µM (inactive) | 11.5 µM (inactive) | 18.5 µM (inactive) | 11.9 µM (inactive) | 14.7 µM (inactive) | 8.73 µM (inactive) | 7.26 µM (inactive) | 15.7 µM (inactive) | 22.7 µM (inactive) | 3.65 µM (inactive) | –
COC(=O)C1=C(C)C(=O)[C@H]2C(C(=O)OC)CCCC[C@@H]12 (some centres undefined) | 55.8 µM (inactive) | 54.6 µM (inactive) | – | 45.6 µM (inactive) | > 100 µM (inactive) | > 100 µM (inactive) | > 100 µM (inactive) | 30.2 µM (inactive) | – | > 100 µM (inactive) | > 100 µM (inactive) | > 100 µM (inactive) | 72.9 µM (inactive) | > 100 µM (inactive) | > 100 µM (inactive) | 49.1 µM (inactive) | > 100 µM (inactive) | 66.2 µM (inactive) | > 100 µM (inactive) | > 100 µM (inactive)
